Experimental data published in ChEMBL document CHEMBL1129881 (Bioorg Med Chem Lett, 1997).

Biological target: Vasopressin V2 receptor (Sus scrofa, UniProt P32307)
Test: Tested for the inhibition to V2 subtype receptor using [3H]- (VS2) as radioligand at 3 nM and arginine-vasopressin at 2 uM in LLCPKI cells
Format: cell-based

Vasopressin V2 receptor, sequence (P32307 whole entry): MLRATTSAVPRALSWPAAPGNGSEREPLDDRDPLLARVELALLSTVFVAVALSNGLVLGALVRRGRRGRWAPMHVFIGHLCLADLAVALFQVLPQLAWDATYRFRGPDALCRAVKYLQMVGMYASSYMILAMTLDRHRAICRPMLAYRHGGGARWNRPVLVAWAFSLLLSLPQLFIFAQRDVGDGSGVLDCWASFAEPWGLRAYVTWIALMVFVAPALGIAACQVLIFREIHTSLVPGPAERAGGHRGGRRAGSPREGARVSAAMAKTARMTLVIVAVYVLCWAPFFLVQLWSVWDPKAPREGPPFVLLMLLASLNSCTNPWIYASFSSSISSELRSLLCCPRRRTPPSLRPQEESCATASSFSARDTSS

- IC50: 9.5 nM
SMILES: NC(=O)CC[C@@H]1NC(=O)[C@H](Cc2ccccc2)NC(=O)[C@H](Cc2ccc(O)cc2)NC(=O)[C@@H](N)CSSSC[C@@H](C(=O)N2CCC[C@H]2C(=O)N[C@@H](CCCN=C(N)N)C(=O)NCC(N)=O)NC(=O)[C@H](CC(N)=O)NC1=O
